Experimental data taken from US20090048301A1 (IMCLONE SYSTEMS INCORPORATED, priority 2003, published 2009).

System: bovine tubulin
Test: In vitro tubulin polymerization assay (turbidity at 340 nm)
Type: biochemical
Settings: 10 μM compound, 30 minute data point, vs 1% DMSO control
Experimental: Briefly, tubulin polymerization is a kinetic process that is temperature-dependent and requires GTP and was performed as follows. Soluble tubulin dimers polymerize into microtubules upon warming, and polymerization in vitro correlates with an increase in turbidity (measured at 340 nm). Lyophilized bovine tubulin (HTS Tubulin—97% tubulin, <3% MAPs—Cytoskeleton Inc.) was ressuspended in G-PEM buffer (80 mM PIPES pH 7, 1 mM EGTA, 1 mM MgCl2, 1 mM GTP, 5% glycerol) to a final concentration of 3 mg/ml and kept at 4° C. Compounds in 100× stock solutions in DMSO were dotted to pre-warmed 96-well plates (Corning Costar 3696), the plates were transferred to a 37° C. plate reader (SPECTRAmax Plus, Molecular Devices), cold tubulin was added to the wells, and the plates were shaken for mixing. The absorbance at 340 nm was determined at one minute intervals for 30 minutes. Kinetic curves with 30 points each were collected for each compound, and the dynamic range was between 0 and 0.4 OD units. The percentage inhibition values were calculated using the 30 minute data point and based on control samples (treated with 1% DMSO only). The assay is a modified version of the HTS kit sold by Cytoskeleton (1830 S. Acoma St., Denver, Colo.), adapted to maximize throughput and reduce time, without reduction in dynamic range or sensitivity, while retaining the ability to detect compounds that inhibit or enhance tubulin polymerization.
Tubulin polymerization is a kinetic process that is temperature-dependent and requires GTP. Soluble tubulin dimers polymerize into microtubules upon warming, and polymerization in vitro correlates with an increase in turbidity (measured at 340 nm). Liophilized bovine tubulin (HTS Tubulin—97% tubulin, <3% MAPs—Cytoskeleton Inc.) was ressuspended in G-PEM buffer (80 mM PIPES pH 7, 1 mM EGTA, 1 mM MgCl2, 1 mM GTP, 5% glycerol) to a final concentration of 3 mg/ml and kept at 4° C. Compounds in 100× stock solutions in DMSO were dotted to pre-warmed 96-well plates (Corning Costar 3696), the plates were immediately transferred to a 37° C. plate reader (SPECTRAmax Plus, Molecular Devices), cold tubulin was added to the wells, plates were shaken for mixing, and absorbance at 340 nm was read every minute for 30 minutes. Kinetic curves with 30 points each were collected for each compound, and the dynamic range was between 0 and 0.4 OD units. Percentage inhibition values were calculated using the 30 minute data point, based on control samples (treated with 1% DMSO only). This assay is a modified version of the HTS kit sold by Cytoskeleton, adapted to maximize throughput and reduce time, without reduction in dynamic range or sensitivity, while retaining the ability to detect compounds that inhibit or enhance tubulin polymerization.

| Compound | Tubulin Assay: percent inhibition at 10 μM based on 30 minute data |
| --- | --- |
| COc1cc(CNc2cc(N3CCN(C)CC3)ccc2-c2nnc(Nc3ccc4c(c3)OCCO4)o2)cc(OC)c1 [Compound 235, (2,3-Dihydro-benzo[1,4]dioxin-6-yl)-{5-[2-(3,5-dimethoxy-benzylamino)-4-(4-methyl-piperazin-1-yl)-phenyl]-[1,3,4]oxadiazol-2-yl}-amine] | 24% |
| COc1ccc(OC)c(Nc2nnc(-c3cccnc3NCc3cccnc3)[nH]2)c1 [Compound 28, {3-[5-(2,5-Dimethoxy-phenylamino)-4H-[1,2,4]triazol-3-yl]-pyridin-2-yl}-pyridin-3-ylmethyl-amine] | 22% |
| COc1cccc(Nc2ncc(-c3ccccc3NCc3ccc(F)c(F)c3)o2)c1 [Compound 252, {5-[2-(3,4-Difluoro-benzylamino)-phenyl]-oxazol-2-yl}-(3-methoxy-phenyl)-amine] | 27% |
| FC(F)(F)c1cccc(-c2nnc(-c3cccnc3NCc3ccncc3)[nH]2)c1 [Compound 76, Pyridin-4-ylmethyl-{3-[5-(3-trifluoromethyl-phenyl)-4H-[1,2,4]thiazol-3-yl]-pyridin-2-yl}-amine] | 21% |
| c1ccc(-c2nnc(Nc3ccc4c(c3)OCCO4)o2)c(NCc2ncc[nH]2)c1 [Compound 220, (2,3-Dihydro-benzo[1,4]dioxin-6-yl)-(5-{2-[(1H-imidazol-2-ylmethyl)-amino]-phenyl}-[1,3,4]oxadiazol-2-yl)-amine] | 79% |
| COc1ccc(CNc2ncccc2-c2nnc(Nc3ccc4c(c3)OCO4)o2)cc1OC [Compound 158, {3-[5-(Benzo[1,3]dioxol-5-ylamino)-[1,3,4]oxadiazol-2-yl]-pyridin-2-yl}-(3,4-dimethoxy-benzyl)-amine] | 90% |
| COc1cccc(Nc2nnc(-c3cccnc3NCc3ccc4c(c3)CCO4)[nH]2)c1 [Compound 37, (2,3-Dihydro-benzofuran-5-ylmethyl)-{3-[5-(3-methoxy-phenylamino)-4H-[1,2,4]triazol-3-yl]-pyridin-2-yl}-amine] | 91% |
| CN(C)c1ccc(-c2nnc(Nc3ccc4c(c3)OCCO4)o2)c(NCc2cncnc2)c1 [Compound 234, (2,3-Dihydro-benzo[1,4]dioxin-6-yl)-(5-{4-dimethylamino-2-[(pyrimidin-5-ylmethyl)-amino]-phenyl}-[1,3,4]oxadiazol-2-yl)-amine] | 30% |
| COc1cc(Nc2nnc(-c3cccnc3NCc3ccc(F)c(F)c3)o2)cc(OC)c1OC [Compound 167, (3,4-Difluoro-benzyl)-{3-[5-(3,4,5-trimethoxy-phenylamino)-[1,3,4]oxadiazol-2-yl]-pyridin-2-yl}-amine] | 99% |
| COc1cccc(-c2nnc(-c3cccnc3NCc3ccco3)[nH]2)c1 [Compound 95, Furan-2-ylmethyl-{3-[5-(3-methoxy-phenyl)-4H-[1,2,4]triazol-3-yl]-pyridin-2-yl}-amine] | 41% |
| COc1cccc(-c2nnc(-c3cccnc3OCc3ccc4c(c3)OCO4)[nH]2)c1 [Compound 110, 2-(Benzo[1,3]dioxol-5-ylmethoxy)-3-[5-(3-methoxy-phenyl)-4H-[1,2,4]triazol-3-yl]-pyridine] | 20% |
| CN(C)c1ccc(Nc2nnc(-c3ccccc3NCc3ccc(F)c(F)c3)[nH]2)cc1 [Compound 121, {5-[2-(3,4-Difluoro-benzylamino)-phenyl]-4H-[1,2,4]triazol-3-yl}-(4-dimethylamino-phenyl)-amine] | 23% |
| COc1cccc(Nc2ncc(-c3ccccc3OCc3ccncc3)o2)c1 [Compound 256, (3-Methoxy-phenyl)-{5-[2-(pyridin-4-ylmethoxy)-phenyl]-oxazol-2-yl}-amine] | 50% |
| FC(F)(F)c1cccc(-c2nnc(-c3cccnc3NCc3ccc4c(c3)OCO4)[nH]2)c1 [Compound 83, Benzo[1,3]dioxol-5-ylmethyl-{3-[5-(3-trifluoromethyl-phenyl)-4H-[1,2,4]triazol-3-yl]-pyridin-2-yl}-amine] | 25% |
| N#Cc1ccc(S(=O)(=O)Nc2ccccc2-c2nnc(Nc3ccc4c(c3)OCCO4)o2)cc1 [Compound 242, 4-Cyano-N-{2-[5-(2,3-dihydro-benzo[1,4]dioxin-6-ylamino)-[1,3,4]oxadiazol-2-yl]-phenyl}-benzenesulfonamide] | 92% |
| Brc1cnn(-c2ncccc2-c2nnc(Nc3ccc4c(c3)OCCO4)o2)c1 [Compound 211, {5-[2-(4-Bromo-pyrazol-1-yl)-pyridin-3-yl]-[1,3,4]oxadiazol-2-yl}-(2,3-dihydro-benzo[1,4]dioxin-6-yl)-amine] | 73% |
| COc1cccc(-c2nnc(-c3ccccc3NCc3ccc4cn[nH]c4c3)[nH]2)c1 [Compound 149, (1H-Indazol-6-ylmethyl)-{2-[5-(3-methoxy-phenyl)-4H-[1,2,4]triazol-3-yl]-phenyl}-amine] | 26% |
| COc1ccc(Nc2nnc(-c3cccnc3Nc3ccc4cn[nH]c4c3)[nH]2)c(OC)c1 [Compound 22, {3-[5-(2,4-Dimethoxy-phenylamino)-4H-[1,2,4]triazol-3-yl]-pyridin-2-yl}-(1H-indazol-6-yl)-amine] | 24% |
| COc1cc(Nc2nnc(-c3cccnc3NCCc3cccnc3)o2)cc(OC)c1OC [Compound 204, (2-Pyridin-3-yl-ethyl)-{3-[5-(3,4,5-trimethoxy-phenylamino)-[1,3,4]oxadiazol-2-yl]-pyridin-2-yl}-amine] | 28% |
| COc1cccc(CNc2ncccc2-c2nnc(Nc3ccc4c(c3)OCCO4)[nH]2)c1 [Compound 52, {3-[5-(2,3-Dihydro-benzo[1,4]dioxin-6-ylamino)-4H-[1,2,4]triazol-3-yl]-pyridin-2-yl}-(3-methoxy-benzyl)-amine] | 35% |
| c1cncc(CNc2ccccc2-c2cnc(Nc3ccc4c(c3)OCCO4)o2)c1 [Compound 248, (2,3-Dihydro-benzo[1,4]dioxin-6-yl)-(5-{2-[(pyridin-3-ylmethyl)-amino]-phenyl}-oxazol-2-yl)-amine] | 79% |
| COc1cccc(Nc2nnc(-c3cccnc3NCc3cc(OC)cc(OC)c3)[nH]2)c1 [Compound 23, (3,5-Dimethoxy-benzyl)-{3-[5-(3-methoxy-phenylamino)-4H-[1,2,4]triazol-3-yl]-pyridin-2-yl}-amine] | 22% |
| COc1ccc(CNc2ncccc2-c2nnc(Nc3cc(OC)c(OC)c(OC)c3)o2)cc1 [Compound 188, (4-Methoxy-benzyl)-{3-[5-(3,4,5-trimethoxy-phenylamino)-[1,3,4]oxadiazol-2-yl]-pyridin-2-yl}-amine] | 56% |
| COc1ccc(Nc2nnc(-c3cccnc3NCc3cccnc3)[nH]2)cc1 [Compound 26, {3-[5-(4-Methoxy-phenylamino)-4H-[1,2,4]triazol-3-yl]-pyridin-2-yl}-pyridin-3-ylmethyl-amine] | 20% |
